The target in series [1] is T1, Prostaglandin F (FP) Receptor (Homo sapiens, UniProt P43088).
T1 construct: host or cells: Ca2+ optimized hematopoietic cell lines (rat)
Nature of the series: Ca2+ assay (FLIPR) for the GPCR prostaglandin F (FP) receptor, agonist and antagonist mode. It is filed as cell-based. As to the method: Biological and Pharmacological Methods 1. Ca^2+ Assays for the GPCRs Motilin Receptor, Prostaglandin F (FP) Receptor, 5-hydroxytryptamine 2B (5-HT2B) Receptor, and Purinoreceptor P2Y1
Assays were performed using on a FLIPR^TETRA fluorometric imaging plate reader (Molecular Devices) with ScreenWorks Version 2 (Molecular Devices) as device operating and data analysis software.
Dose dependent agonist and antagonist activities were determined. Percentage activation and percentage inhibition values were determined.
Percentage activation was determined upon initial addition of the sample compounds followed by 10 minutes incubation at 25° C. Following compound incubation, reference agonists were added at EC80 to determine percentage inhibition.
Reference agonists were purchased from reputable commercial vendors and prepared according to each ligand's specifications. All handling of ligands were done to ensure proper control throughout the experiments.
Example compounds were weighed on a Microbalance (Mettler MX5) and dissolved in 100% DMSO to a final concentration of 2.5 mM and subsequently diluted into the assay buffer.
The Assay buffer was a supplemented HBSS (Hank's Balanced Salt Solution). HBSS was supplemented with 20 mM HEPES (4-(2-hydroxyethyl)-piperazin-1-ethansulfonic acid) and 2.5 mM Probenecid (Sigma P8761).
GPCR assays were performed using Ca^2+ optimized hematopoietic cell lines (rat) with cultures never exceeding 90% confluency. Cells were harvested and seeded (from cultures at less than 90% confluency) at 50000 cells/well for a 96-well plate (12500 cells/well for 384). After seeding, the assay plates were incubated for forty-five (45) minutes at room temperature. After room temperature incubation, the assay plates were incubated at 37° C. 5% CO2 for 24 hours prior to assaying.
All GPCR assays were performed using Fluo-8 Ca^2+ dye. Ca^2+ dye was prepared at 1× dye concentration in GPCR assay buffer. After 24 hours of incubation, cells were washed with GPCR assay buffer, and then Ca^2+-dye (100 μL/well) was added.
The plates were incubated for 90 minutes at 30° C. 5% CO2 prior to FLIPR assay.
Compound plates were prepared to add 50 μL/well during the agonist assay mode. During the FLIPR assay, 50 μL/well from the compound plate was diluted 3-fold into the existing 100 μL/well from the dye loading step. Therefore all compounds were prepared as 3× the final concentration desired in the assay.
After completion of the first single addition assay run, assay plate was removed from the FLIPR Tetra and placed at 25° C. for seven (7) minutes before antagonist assay.
Using the EC80 values determined during the agonist assay, all pre-incubated sample compound and reference antagonist (if applicable) wells were stimulated at the EC80 of the reference agonist. As reference ligands for the first three assays their obvious natural ligands motilin, prostaglandin F2α, and serotonin (5-HT, 5-Hydroxytryptamine) were used; and for the P2Y1 assay 2MeSATP (2-methyl-thio-adeno-sine 5′-triphosphate, i.e. (2R,3S,4R)-5-(6-amino-2-methylsulfanyl-purin-9-yl)-3,4-dihydroxy-tetrahydrofuran-2-yl]methyl (hydroxy-phosphonooxy-phosphoryl)hydrogen phosphate) was applied.
After the addition of the reference agonist fluorescence was monitored for 180 sec using FLIPR Tetra.
Data Analysis and Results:
From the FLIPR data, with negative control correction enabled, the maximum statistic for each well was exported and percentage activation relative to Emax control was calculated.

Series [2] in a line: in vitro. It is filed as in vitro ADME, human. The settings on record: human, plasma, 10 µM; for Plasma Stability 240 min hum [% remain.]: 4 h.
A short description of series [3]: in vitro. The format is in vitro ADME, mouse. The conditions noted are these: both, CD-1, mouse, plasma, 10 µM; for Plasma Stability 240 min mouse [% remain.]: 4 h.
A short description of series [4]: Metabolic stability assay, human microsomes. The format is in vitro ADME. The settings on record: human, microsomes; for half-life at 10 µM: both sexes; for Metabolic Stability 60 min hum [% remain.]: both, 1 h, 10 µM.
The nature of series [5]: Metabolic stability assay, CD-1 mouse microsomes. The settings on record: CD-1, mouse, microsomes; for half-life at 10 µM: both sexes; for Metabolic Stability 60 min mouse [% remain.]: both, 1 h, 10 µM. The format is in vitro ADME.

A value given as a limit tells only on which side of the number the result lay.
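For Plasma Stability 240 min mouse [% remain.] in this document: sodium citrate stabilized mouse plasma, parent compound quantified by HPLC/MS/MS relative to its peak area at time zero, run in triplicate.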
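For Plasma Stability T½ [min] mouse in this document: sodium citrate stabilized mouse plasma, parent compound quantified by HPLC/MS/MS relative to its peak area at time zero, run in triplicate.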

T1 sequence (P43088 whole entry): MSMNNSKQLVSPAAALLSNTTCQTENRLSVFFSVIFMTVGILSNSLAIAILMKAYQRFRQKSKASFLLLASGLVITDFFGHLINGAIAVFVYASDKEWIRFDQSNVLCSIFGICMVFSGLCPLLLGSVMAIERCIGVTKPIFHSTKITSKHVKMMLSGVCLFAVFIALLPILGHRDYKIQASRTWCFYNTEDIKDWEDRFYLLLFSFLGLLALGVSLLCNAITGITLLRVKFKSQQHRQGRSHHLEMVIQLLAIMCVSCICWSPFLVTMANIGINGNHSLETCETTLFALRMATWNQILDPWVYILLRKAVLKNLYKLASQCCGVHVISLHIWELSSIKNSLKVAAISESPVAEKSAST

On to `CN1CCC[C@H](NC(=O)Cc2ccc3ccccc3c2)C(=O)N2C[C@@H](NC(=O)Cc3cccc(Oc4ccccc4)c3)C[C@H]2COc2cccc(c2)C1=O` [Ex. 541, N-[(4S,6S,10S)-14-methyl-9,15-dioxo-6-{[2-(3-phenoxyphenyl)acetyl]amino}-2-oxa-8,14-diazatricyclo[14.3.1.0^4,8]icosa-1(20),16,18-trien-10-yl]-2-(2-naphthyl)acetamide], for which 10 µM produced 65% inhibition in series [1].

`CN1CCC[C@H](NC(=O)CC(c2ccccc2)c2ccccc2)C(=O)N2C[C@@H](NC(=O)Cc3ccc4ccccc4c3)C[C@H]2COc2cccc(c2)C1=O` [Ex. 523, N-[(4S,6S,10S)-14-methyl-6-{[2-(2-naphthyl)acetyl]amino}-9,15-dioxo-2-oxa-8,14-diazatricyclo[14.3.1.0^4,8]icosa-1(20),16,18-trien-10-yl]-3,3-diphenylpropanamide]: in series [1], the IC50 (usually the concentration that inhibits the measured activity by half) was found to be 0.86 µM and testing at 10 µM gave an inhibition of 92%.

Take `CCCCCCCCCC(=O)N[C@H]1C[C@H]2COc3cccc(c3)C(=O)N(C)CCC[C@H](NC(=O)Cc3ccc4ccccc4c3)C(=O)N2C1` [Ex. 542, N-[(4S,6S,10S)-14-methyl-10-{[2-(2-naphthyl)acetyl]amino}-9,15-dioxo-2-oxa-8,14-diazatricyclo[14.3.1.0^4,8]icosa-1(20),16,18-trien-6-yl]decanamide]: testing at 10 µM in series [1] gave an inhibition of 74%.

For `O=C(Cc1ccc2ccccc2c1)N[C@H]1C[C@H]2COc3cccc(c3)C(=O)NCCC[C@H](NC(=O)OCc3ccccc3)C(=O)N2C1` [Ex. 388, benzyl N-[(4S,6S,10S)-6-{[2-(2-naphthyl)acetyl]amino}-9,15-dioxo-2-oxa-8,14-diazatricyclo[14.3.1.0^4,8]icosa-1(20),16,18-trien-10-yl]carbamate], in series [1], the IC50 is 0.32 µM and the inhibition (usually the share of the control response that was lost under treatment) at 10 µM was determined as 99%.

The compound `CN1CCC[C@H](NC(=O)Cc2ccc3ccccc3c2)C(=O)N2C[C@@H](NC(=O)Nc3ccc(N(C)C)cc3)C[C@H]2COc2cccc(c2)C1=O` [Ex. 538, N-[(4S,6S,10S)-6-({[4-(dimethylamino)anilino]carbonyl}amino)-14-methyl-9,15-dioxo-2-oxa-8,14-diazatricyclo[14.3.1.0^4,8]icosa-1(20),16,18-trien-10-yl]-2-(2-naphthyl)acetamide] gave an inhibition at 10 µM in series [1] of 80%.

On to `CCCCCCCCCC(=O)N[C@H]1CCCN(C)C(=O)c2cccc(c2)OC[C@@H]2C[C@H](NC(=O)Cc3cccc4ccccc34)CN2C1=O` [Ex. 519, N-[(4S,6S,10S)-14-methyl-6-{[2-(1-naphthyl)acetyl]amino}-9,15-dioxo-2-oxa-8,14-diazatricyclo[14.3.1.0^4,8]icosa-1(20),16,18-trien-10-yl]decanamide], for which the half-maximal inhibitory concentration (IC50) in series [1] stood at 3 µM. That is a single-digit micromolar value.

In turn, `CN1CCC[C@H](NC(=O)Cc2ccc(-c3ccccc3)cc2)C(=O)N2C[C@@H](NC(=O)C(c3ccccc3)c3ccccc3)C[C@H]2COc2cccc(c2)C1=O` [Ex. 546, N-[(4S,6S,10S)-10-[(2-[1,1′-biphenyl]-4-ylacetyl)amino]-14-methyl-9,15-dioxo-2-oxa-8,14-diazatricyclo[14.3.1.0^4,8]icosa-1(20),16,18-trien-6-yl]-2,2-diphenylacetamide] had an inhibition at 10 µM in series [1] of 37%.

Compound `CN1CCC[C@H](NC(=O)Cc2cccc3ccccc23)C(=O)N2C[C@@H](NC(=O)C(c3ccccc3)c3ccccc3)C[C@H]2COc2cccc(c2)C1=O` [Ex. 549, N-[(4S,6S,10S)-14-methyl-10-{[2-(1-naphthyl)acetyl]amino}-9,15-dioxo-2-oxa-8,14-diazatricyclo[14.3.1.0^4,8]icosa-1(20),16,18-trien-6-yl]-2,2-diphenylacetamide] gave an inhibition at 10 µM in series [1] of 62%.

Take `CCCCCC(=O)N[C@H]1C[C@H]2COc3cccc(c3)C(=O)N(C)CCC[C@H](NC(=O)Cc3cccc4ccccc34)C(=O)N2C1` [Ex. 544, N-[(4S,6S,10S)-14-methyl-10-{[2-(1-naphthyl)acetyl]amino}-9,15-dioxo-2-oxa-8,14-diazatricyclo[14.3.1.0^4,8]icosa-1(20),16,18-trien-6-yl]hexanamide]: the inhibition at 10 µM in series [1] amounted to 81%.

In series [1], `CCCCCCCCCC(=O)N[C@H]1CCCN(C)C(=O)c2cccc(c2)OC[C@@H]2C[C@H](NC(=O)c3cccc(N4CCOCC4)c3)CN2C1=O` [Ex. 510, N-[(4S,6S,10S)-14-methyl-6-[(3-morpholinobenzoyl)amino]-9,15-dioxo-2-oxa-8,14-diazatricyclo[14.3.1.0^4,8]icosa-1(20),16,18-trien-10-yl]decanamide] came in with a half-maximal inhibitory concentration (IC50) of 1.5 µM and an inhibition at 10 µM of 42%.

Take `CN1CCC[C@H](NC(=O)CCCCCOCc2ccccc2)C(=O)N2C[C@@H](NC(=O)Cc3ccc4ccccc4c3)C[C@H]2COc2cccc(c2)C1=O` [Ex. 521, 6-(benzyloxy)-N-[(4S,6S,10S)-14-methyl-6-{[2-(2-naphthyl)acetyl]amino}-9,15-dioxo-2-oxa-8,14-diazatricyclo[14.3.1.0^4,8]icosa-1(20),16,18-trien-10-yl]hexanamide]: in series [1], the IC50 turned out to be 1 µM and the inhibition at 10 µM was 81%.

For `CN1CCC[C@H](NC(=O)Cc2cccc3ccccc23)C(=O)N2C[C@@H](NC(=O)Cc3ccc(-c4ccccc4)cc3)C[C@H]2COc2cccc(c2)C1=O` [Ex. 545, 2-[1,1′-biphenyl]-4-yl-N-[(4S,6S,10S)-14-methyl-10-{[2-(1-naphthyl)acetyl]amino}-9,15-dioxo-2-oxa-8,14-diazatricyclo[14.3.1.0^4,8]icosa-1(20),16,18-trien-6-yl]acetamide], in series [1], the inhibition at 10 µM amounted to 80%.

As to `CN1CCC[C@H](NC(=O)CCCCCc2ccccc2)C(=O)N2C[C@@H](NC(=O)Cc3ccc4ccccc4c3)C[C@H]2COc2cccc(c2)C1=O` [Ex. 516, N-[(4S,6S,10S)-14-methyl-6-([2-(2-naphthyl)acetyl]amino}-9,15-dioxo-2-oxa-8,14-diazatricyclo[14.3.1.0^4,8]icosa-1(20),16,18-trien-10-yl]-6-phenylhexanamide], in series [1], the half-maximal inhibitory concentration (IC50) worked out at 0.59 µM and the inhibition at 10 µM was found to be 97%.

`CN1CCC[C@H](N)C(=O)N2C[C@@H](OCc3ccc(-c4cncnc4)cc3)C[C@H]2COc2cccc(c2)C1=O` [Ex. 577, (4S,6S,10S)-10-amino-14-methyl-6-{[4-(5-pyrimidinyl)benzyl]oxy}-2-oxa-8,14-diazatricyclo[14.3.1.0^4,8]icosa-1(20),16,18-triene-9,15-dione]: in “in vitro [2]”, the Plasma Stability T½ [min] hum is over 240 min and the “Plasma Stability 240 min hum [% remain.]” value turned out to be 87 % remain. Further, in the series “in vitro [3]”, the Plasma Stability T½ [min] mouse was over 240 min and the “Plasma Stability 240 min mouse [% remain.]” value amounted to 101 % remain. Moreover, in series [4], the half-life (commonly the time needed for the level to fall by half in the phase considered) at 10 µM turned out to be 47 min and the “Metabolic Stability 60 min hum [% remain.]” value is listed as 41 % remain. Moreover, in series [5], the half-life at 10 µM is 27 min and the “Metabolic Stability 60 min mouse [% remain.]” value is recorded as 25 % remain.

For the compound `CNC(=O)[C@H]1CCC(=O)N(C)CC(=O)N2C[C@@H](NC(=O)Cc3ccc4ccccc4c3)C[C@H]2COc2ccc(F)cc2C(=O)N1C` [Ex. 93, (2S,11R,19aS)-15-fluoro-N,7,12-trimethyl-2-{[2-(2-naphthyl)acetyl]amino}-5,8,13-trioxo-2,3,6,7,8,9,10,11,12, 13,19,19a-dodecahydro-1H,5H-pyrrolo[2,1-c][1,4,7,12] benzoxatriazacyclopentadecine-11-carboxamide], in the series “in vitro [2]”, the Plasma Stability T½ [min] hum was over 240 min and the “Plasma Stability 240 min hum [% remain.]” value is recorded as 100 % remain. For the same compound, in the series “in vitro [3]”, the Plasma Stability T½ [min] mouse is over 240 min and the “Plasma Stability 240 min mouse [% remain.]” value was determined as 100 % remain. In series [4], the half-life at 10 µM was found to be 24 min and the “Metabolic Stability 60 min hum [% remain.]” value is on record as 1 % remain. Also, in series [5], the half-life at 10 µM stood at 29 min and the “Metabolic Stability 60 min mouse [% remain.]” value was determined as 15 % remain.
